Measured values taken from US9868707B2, “Small molecule agonists of neurotensin receptor 1” (SANFORD-BURNHAM MEDICAL RESEARCH INSTITUTE, priority 2012, dated 2018).

Experiments:
[1] = Parallel Artificial Membrane Permeability Assay (PAMPA); format: in vitro ADME
Method: The PAMPA in a 96-well sandwich plate format was used to determine the capacity of compounds to cross a model of cell membrane by passive diffusion (Avdeef, A., Nielsen, P. E., and Tsinman, O. 2004. PAMPA—a drug absorption in vitro model 11. Matching the in vivo unstirred water layer thickness by individual-well stirring in microtitre plates. Eur J Pharm Sci 22:365-374). The effective permeability of the compound was measured at an initial concentration of 50 μM. The permeability measurements were performed using a cosolvent buffer system (20% ACN/aqueous buffer) solution (pION Inc, Woburn Mass.) prepared according to the manufacturer's instructions. The compound was dissolved in buffer solution and ACN (20%, cosolvent) to the desired concentration (50 μM). The PAMPA sandwich plate consisting of a donor bottom plate and an acceptor filter plate was used. The donor wells contained the compounds in 190 μl system solution, and magnetic stir bars. The filter on the bottom of each acceptor well was coated with GIT-0 phospholipid solution (pION Inc) and filled with 200 μl of Acceptor Sink Buffer, pH 7.4 (pION Inc) containing surfactant. The permeation time was 30 min and moderate stirring (equivalent to 40 μm Aqueous Boundary Layer thickness) was applied using the Gut-Box™ (pION, Inc). After the permeation time, the sandwich was disassembled and the amount of compound present in both the donor and acceptor wells was measured by UV absorbance (250-498 nm) and compared to spectra obtained reference standards. Mass balance was used to determine the amount of material embedded in the membrane filter. The effective permeability, Pe, was calculated using the software PAMPA Evolution Plus, version 3.2 (pION Inc).

[2] = Metabolic stability in human hepatic microsomes; format: in vitro ADME
Method: Hepatic metabolic stability was determined using established protocols (Di, L., Kerns, E. H., Hong, Y., Kleintop, T. A., McConnell, O. J., and Huryn, D. M. 2003. Optimization of a higher throughput microsomal stability screening assay for profiling drug discovery candidates. J Biomol Screen 8:453-462). Briefly, the compound (1.0 and 10.0 μM) was preincubated for 10 min at 37° C. in potassium phosphate buffer (pH 7.4) together with 0.5 mg/mL mouse or human hepatic microsomes (Xenotech, Kansas City). The cofactor mixture comprising NADP, G6P, and G6P-DH (BD Biosciences) was added, and aliquots were taken after 0 and 60 min. Samples were analyzed on an Acquity UPLC, coupled with a sample organizer, and interfaced with a triple quadrupole ABI 4000 LC/MS/MS using the methodology described above. The percentage of the compound remaining after a 60 min incubation period was calculated according the following equation: [(area at time 60 min)/(area at time 0 min)]×100%.

NTSR1 (NTR1) = target: T1, NTSR1 (NTR1) (Homo sapiens, UniProt P30989); test: NTR1 β-Arrestin dose response (DiscoveRx PathHunter, CHO-K1); format: cell-based
T1 construct: host or cells: CHO-K1
Method: The NTR1 β-Arrestin assays were performed using a PathHunter™ eXpress kit (93-0446E2) which contained the NTSR1 (NTR1) CHO cell line, OCC2 media (30-409), as well as the PathHunter Detection Reagents (93-0446E2). The kit was obtained from DiscoveRx (Fremont, Calif.). The assay employed the same neurotensin 1 peptide as a control as was used in the NTR1 primary assay. The assay was run in 1536-well, white, solid-bottom tissue culture plates (3727) from Corning.
On day one of the assay, 5 uL of a cell suspension containing 120,000 NTSR1 (NTR1) CHO-K1 cells per mL in OCC2 media is added to each well of a 1536-well assay plate using a Multidrop Combi. The assay plates are then incubated for 48 hours at 37° C., under 5% CO2. Following the two day incubation, a volume of 20, 10, and 5 nL of 10 and 1.2 mM test compounds in DMSO were transferred from source wells to test compound wells in assay plates with a LabCyte Echo to achieve final assay concentrations ranging from 33 to 1.03 uM for each test sample. Test compound wells and control wells were backfilled with DMSO to achieve a final volume of DMSO of 20 nL or a final assay concentration of 0.33%. […] Plates are again centrifuged as previously described then incubated at room temperature for 1 hour before being read on the PerkinElmer using a luminescent protocol.

T1 sequence (P30989 whole entry): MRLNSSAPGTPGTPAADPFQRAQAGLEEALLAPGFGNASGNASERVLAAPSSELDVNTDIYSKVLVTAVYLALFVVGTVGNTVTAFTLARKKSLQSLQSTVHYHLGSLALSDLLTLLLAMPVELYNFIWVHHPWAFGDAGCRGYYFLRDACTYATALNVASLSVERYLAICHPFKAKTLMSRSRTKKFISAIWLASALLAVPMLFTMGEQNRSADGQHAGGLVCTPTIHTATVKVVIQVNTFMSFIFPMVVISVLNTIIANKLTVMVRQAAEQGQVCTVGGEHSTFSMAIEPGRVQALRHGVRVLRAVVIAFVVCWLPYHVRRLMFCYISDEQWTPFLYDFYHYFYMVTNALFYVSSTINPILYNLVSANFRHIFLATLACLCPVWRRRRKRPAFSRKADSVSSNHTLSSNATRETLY

SMILES: COc1cc2nc(C3CC3)nc(N3CCN(c4ccccc4OC)CC3)c2cc1OC [Compound 315, 2-cyclopropyl-6,7-dimethoxy-4-(4-(2-methoxyphenyl)piperazin-1-yl)quinazoline]
- PAMPA Permeability, Pe ([1]; Donor pH 5.0, Acceptor pH 7.4): 1163 ×10⁻⁶ cm/s
- PAMPA Permeability, Pe ([1]; Donor pH 6.2, Acceptor pH 7.4): 2145 ×10⁻⁶ cm/s
- PAMPA Permeability, Pe ([1]; Donor pH 7.4, Acceptor pH 7.4): 2093 ×10⁻⁶ cm/s
- permeability in the PAMPA assay ([1]; with increasing pH of the donor compartment): high permeability
- Hepatic Microsome Stability (% Remaining at 1 hr) [2]: 1.36%
- metabolism in vitro with liver homogenates [2]: metabolized rapidly
- EC50 (NTSR1 (NTR1)): 3.41 µM
